Data as given in US11248022B2, “Glypican-3 peptide reagents and methods” (THE REGENTS OF THE UNIVERSITY OF MICHIGAN, priority 2017, dated 2022).
Where two headings read alike, the source gives them in different places. Ends that are not written are not given here.

Experiments:
Hep3B cells = assay: Competition for peptide binding on Hep3B cells; format: cell-based, human
Description: The specificity of peptide reagent binding was also validated by competition assay. Hep3B cells were grown on cover glass and incubated first with unlabeled peptides over a range of concentrations (0-500 μM), and then with ALL*-Cy5.5 peptide. The fluorescence intensities were measured using confocal microscopy. […] Differences in fluorescence intensity between the ALL*-Cy5.5 peptide reagent and control are significant at concentrations of 50 μM and greater.

Hep3B xenograft = assay: In vivo NIR laparoscopic imaging of HCC xenograft tumors; design: species or system mice; details: NIR laparoscope, 2 hours after i.v. injection, n=8
Description: Human HCC cells Hep3B and SK-Hep1 were cultured in Eagle's Minimum Essential Medium (EMEM) at 37° C. in 5% CO2, and supplemented with 10% fetal bovine serum (FBS) and 1% penicillin/streptomycin. Western blotting was performed to validate expression level of GPC3. Cells were diluted in growth factor reduced (GFR) Matrigel Matrix (Corning), and injected into one flank of female (to avoid male dominance within a cage) nude athymic mice (nu/nu, Jackson Laboratory) at 4 to 6 weeks of age with weight between 20 to 25 grams. ˜5×10^6 cells were implanted per mouse.
A standard surgical laparoscope (#49003 AA, HOPKINS® II Straight Forward Telescope 0°, Karl Storz) that is ˜10 mm in diameter and has a 31 cm length rigid sheath was adapted to collect reflectance and fluorescence concurrently. Nude mice with human HCC xenograft 2 weeks post implantation were tail vein injected with 200 μL 300 μM GPC3 peptide ALL*-Cy5.5. During imaging, the mice were anesthetized with inhaled isoflurane. We first used laparoscope with white light illumination to exam the xenograft. Laparoscopic images were taken two hours post injection in both fluorescence and reflection mode simultaneously with excitation solid state diode laser (660-S, Toptica Photonics) to deliver excitation at λex=660 nm into the fiber optic light guide. Images were collected at 5 frames/sec with a laser power of 1.2 mW. Hoechst 33342 (H1399, Life Technologies) at a dose of 10 mg/kg diluted in 200 μL of PBS was delivered intravenously via a tail vein injection to stain the cell nuclei 30 minutes before sacrificing the mouse. Xenograft tumors were resected and confocal fluorescence images were collected with Cy5.5 and DAPI filters 50 μm beneath the surface using a confocal microscope (Leica SPSX Upright 2-Photon Confocal Microscope). Following imaging, resected xenografts were fixed and formalin embedded for immunohistochemistry and H&E staining as described previously.
Fluorescence images of mouse HCC xenograft taken at 2 hrs post peptide injection were registered with corresponding reflectance images taken simultaneously. The fluorescence intensity of each pixel in the image was divided by intensity of corresponding pixel in the reflectance image in order to account for the difference in distance between each pixel and the laser source. A heat map image was generated from the resulting ratios at each pixel. Image segmentation was performed automatically by custom Matlab (Mathworks) software program using Ostu's Method [Otsu, Automatica, 11(285-296): 23-27 (1975)]. Target to background ratio of each processed image was calculated by dividing the average intensity of pixels inside the segmented tumor and that of those within 30 pixels outside of segmentation outline.

[1] = target: purified recombinant GPC3 core protein (Homo sapiens, UniProt P51654); assay: Phage display biopanning; format: binding; details: four rounds of biopanning
Sequence of purified recombinant GPC3 core protein (P51654 25-554): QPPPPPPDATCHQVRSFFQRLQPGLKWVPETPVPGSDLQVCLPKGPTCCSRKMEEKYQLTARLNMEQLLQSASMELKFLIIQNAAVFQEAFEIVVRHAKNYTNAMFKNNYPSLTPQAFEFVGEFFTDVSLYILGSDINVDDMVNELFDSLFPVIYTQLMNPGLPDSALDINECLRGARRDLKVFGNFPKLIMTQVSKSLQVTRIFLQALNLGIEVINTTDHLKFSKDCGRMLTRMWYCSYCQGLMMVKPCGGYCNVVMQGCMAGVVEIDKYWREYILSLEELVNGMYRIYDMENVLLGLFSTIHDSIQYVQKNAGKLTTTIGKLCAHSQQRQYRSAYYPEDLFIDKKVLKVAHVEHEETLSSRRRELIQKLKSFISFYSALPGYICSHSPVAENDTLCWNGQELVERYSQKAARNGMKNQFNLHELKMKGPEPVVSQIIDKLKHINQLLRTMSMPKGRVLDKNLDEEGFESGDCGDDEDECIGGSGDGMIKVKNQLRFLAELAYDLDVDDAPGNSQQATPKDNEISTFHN
Description: A panel of candidate peptides that are specific to GPC3 was identified using phage display technology. Peptide selection was performed using a library of M13 bacteriophage that express ˜10^9 unique clones of each individual sequence [Zhou et al., Clin Transl Gastroenterol, 6:e101 (2015); Joshi et al., Bioconjug Chem, 27:481-494 (2016); Rabinsky et al., Cell Mol Gastroenterol Hepatol, 2:222-237 (2016)]. The library was biopanned against purified recombinant GPC3 core protein immobilized in a 6-well plate. Four rounds of biopanning were performed using decreasing quantity (100, 80, 60, and 40 μg) of GPC3 core protein in successive rounds to increase binding specificity. The bound phages were eluted, amplified, precipitated and tittered using standard protocols, and the enriched clones from the candidate pool were sequenced to identify the lead candidates: ALLANHEELF (SEQ ID NO: 2), GLHTSATNLYLH (SEQ ID NO: 3), SGVYKVAYDWQH (SEQ ID NO: 4) and VGVESCASRCNN (SEQ ID NO: 5).

Hep3B human HCC cells = assay: Confocal microscopy of peptide binding to Hep3B cells; format: cell-based; details: Hep3B cells, confocal microscopy
Description: (§1) FIGS. 6-2A-Q show validation of specific peptide binding to cells in vitro. […] The Hep3B versus SK-Hep1 difference was also larger for antibody than QLE (P=2.3×10^−8, 6.0-fold larger). Intensity was measured with 6 replicates per condition and fitted to an ANOVA model with terms for 9 means to log-transformed data. […] We further validated specific peptide binding to GPC3 using siRNA knockdown. […] Q) Quantified fluorescence intensities. The siCL vs siGPC3 difference was 7.4 times bigger for ALL than the same difference for QLE (P=7.8×10^−5), and the difference for antibody was 8.9 times bigger than for QLE (P=2.5×10^−5), by ANOVA on log-transformed data. Results are an average of 6 images collected independently.
(§2) On confocal microscopy, it was shown that ALL*-Cy5.5 binds to the surface (arrows) of cells with different levels of GPC3 expression. […] GPC3 is highly overexpressed in Hep3B cell cytosol and membrane while moderately expressed in HepG2 cells. No GPC3 expression is observed in SK-Hep1 cells. Tubulin serves as loading control for either cytosol or membrane fractions loaded.

HepG2 human HCC cells = assay: Confocal microscopy of peptide binding to HepG2 cells; format: cell-based; details: HepG2 cells, confocal microscopy
Description: as §1, §2

SK-Hep1 cells = assay: Confocal microscopy of peptide binding to SK-Hep1 cells; format: cell-based, human
Description: as §1, §2

GPC3 = target: T1, GPC3 (Homo sapiens, UniProt P51654); assay: siRNA knockdown of GPC3 in Hep3B cells, confocal fluorescence; format: cell-based; details: Hep3B cells transfected with non-targeting siRNA (siCL)
T1 construct: endogenous in cells; host or cells: Hep3B human HCC cells (siCL control vs siGPC3 knockdown); also HepG2; SK-Hep1 as GPC3-negative control
T1 sequence (P51654 25-554): as above
Description: as §1
The specificity of lead candidate peptide reagent binding was validated by siRNA knockdown of GPC3 in human HCC cells. The cells were transfected with siRNA to knockdown cell surface expression of GPC3. […] These cells were transfected with non-targeting siRNA (siCL) for use as control. […] FIG. 6-1D,E show ˜4-fold reduction in fluorescence intensity with both the peptide reagent and anti-GPC3 antibody, respectively, for Hep3B cells transfected with siRNA (siGPC3) to knock down GPC3 expression. […] FIG. 6-2M, N, O and P show the same result as original FIG. 6-1A, B, D and E.

[2] = tested on: HCC xenograft tumor overexpressing GPC3; assay: In vivo handheld dual axes confocal endomicroscope imaging; design: species or system mice
Description: GPC3 expression from human HCC xenograft tumors was evaluated in real time by collecting optical sections in vivo using a handheld 5.5 mm diameter dual axes confocal endomicroscope. A solid-state diode laser (300 mW, CNI Laser Inc.) provided illumination at λex=671 nm. A parabolic mirror focused the illumination and collection beams to overlap below the tissue surface with lateral and axial resolution of 2 and 5 μm, respectively. A compact, 3D monolithic scanner located in the distal tip provided large vertical displacements and wide angular deflections to produce images in the vertical (XZ) and horizontal (XY) planes with a FOV of 1000×430 and 1000×1000 μm^2, respectively. NIR fluorescence is collected and passes through a band pass filter (FF01-716/40-25, Semrock) that transmits from 696-736 nm with >93% efficiency for detection with a photomultiplier tube (PMT, H7422PA-40, Hamamatsu) detector. The peptides were injected via the tail vain, and dissected away the skin overlying the tumor to gain access. The distal tip of the endomicroscope was placed in contact with the tumor using a drop of saline to couple the light. Laser power <2 mW on the tissue was used to avoid photobleaching. NIR fluorescence images were collected at 5 frames per sec. 3D volumetric images were reconstructed from a series of images collected in the vertical plane using Amira software (ver 5.4.3, FEI Corporation).
The probe was small enough to be comfortably held in the surgeon's hand during surgery, FIG. 12A, for in vivo imaging of biomarker expression. Its diameter was 5.5 mm and delivered 671 nm near-infrared laser at 2 mW. Mouse carrying HCC xenograft tumor overexpressing GPC3 was first injected with 250 μL 300 μM ALL*-Cy5.5 peptide intravenously and after 2 hours the probe was held in contact with exposed subcutaneous tumor to acquire in vivo peptide binding images, FIG. 12B. Images were collected in either the vertical or horizontal plane with 430 μm depth or 1000×1000 μm^2 area, respectively, at 5 frames per second. With measured lateral resolution of 2.49 μm and axial resolution of 4.98 μm, each peptide stained cell can be clearly seen (arrows). […] Strong uptake (arrows) of ALL*-Cy5.5 in tumor was captured on optical sections collected in the horizontal (1000×1000 μm^2, Video 1) FIG. 12C and vertical (1000×430 μm^2, Video 2) FIG. 12D planes, respectively. A series of vertical cross-section images were reconstructed into 3D MIP volume (Video 3), FIG. 12E.

Hep3B xenograft tumors = assay: Ex vivo confocal validation on Hep3B xenograft sections and normal liver; design: species or system mice; details: normal mouse liver sections
From the text: (§3) The specimens were also sectioned for collection of confocal images to perform microscopic validation of peptide binding ex vivo.

SK-Hep1 xenograft tumors = assay: Immunostaining on GPC3 negative SK-Hep1 xenograft sections; design: species or system mice; details: no GPC3 expression
From the text: FIGS. 18A-D show immunostaining on GPC3 negative HCC xenograft tumor.
as §3

[3] = tested on: GPC3 positive tumor (from Hep3B cells); assay: In vivo whole body fluorescent imaging of HCC xenograft
Description: Mice bearing HCC xenograft tumor (arrowheads) were i.v. injected with 250 μL of 300 μM near NIR GPC3 targeting peptide ALL*-Cy5.5, scrambled control peptide QLE*-Cy5.5 and unlabeled Cy5.5 free dye alone. ALL*-Cy5.5 was also injected in mice bearing GPC3 negative tumor (from SK Hep-1 cells, arrows) as control of EPR effect. Pre-injection imaging confirmed no autofluorescence was present.

advanced HCC = details: cited from earlier work

**Q.** Which “effect of unlabeled peptide on ALL*-Cy5.5 fluorescence intensity” value (Hep3B cells) does the source give for “QLELTFHANLEA [QLE*, scrambled (control) peptide, unlabeled, reference compound]” here?
**A.** no change

**Q.** Which “target-to-background (T/B) ratio” value (Hep3B xenograft) does the source give for “QRH*-Cy5.5: label printed in b35/b133 without definition; apparently a misprint for QLE*-Cy5.5 or ALL*-Cy5.5 (QRHKPREGGGSK; not fully specified (C-terminus); also: Cy5.5 label, site not given here, QRH* code without meaning)” here?
**A.** 3.0±0.7

**Q.** Which “effect of unlabeled peptide on ALL*-Cy5.5 fluorescence intensity” value (Hep3B cells) does the source give for ALLANHEELFQT [ALL*] here?
**A.** dose-dependent decrease

**Q.** What about the “concentration of unlabeled peptide giving significant decrease in ALL*-Cy5.5 binding” value (Hep3B cells; unlabeled peptide 0-500 μM) of the same compound?
**A.** ≥ 50 µM

**Q.** With ALLANHEELF as the compound, how does the “level of enrichment in biopanning” value [1] read?
**A.** highest level of enrichment

**Q.** What does the source list for “QLE*-Cy5.5: scrambled control peptide QLELTFHANLEA (SEQ ID NO: 6) labeled with Cy5.5 via GGGSK linker (QLELTFHANLEAGGGSK-{Cy5.5}) [reference compound]”?
**A.** fluorescence intensity from binding to cell surface (Hep3B human HCC cells): Minimal signal; fluorescence intensity from binding to cell surface (HepG2 human HCC cells): Minimal signal; fluorescence intensity from binding to cell surface (SK-Hep1 cells): Minimal signal; binding to cell surface (GPC3): minimal binding; target-to-background (T/B) ratio (Hep3B xenograft): 3.0±0.7; fluorescent intensity at tumor ([2]; 2 hours after i.v. injection, n=8): 16±4; uptake/staining in tumor on optical sections ([2]; horizontal and vertical planes): Minimal staining; staining of normal mouse liver (Hep3B xenograft tumors): Minimal staining; staining of xenograft sections (SK-Hep1 xenograft tumors): No staining; target-to-background (T/B) ratio ([3]; 2 hours post injection, mean±SD): 1.12±0.19

**Q.** Which survival duration (advanced HCC; Asian patients) does the source give for `CNC(=O)c1cc(Oc2ccc(NC(=O)Nc3ccc(Cl)c(C(F)(F)F)c3)cc2)ccn1` [sorafenib, Sorafenib] here?
**A.** 6.5 months

**Q.** What about the survival duration (advanced HCC; Caucasian patients) of the same compound?
**A.** 7.9 months

**Q.** And the “survival advantage over placebo” value (advanced HCC; clinic studies (SHARP))?
**A.** ~3 months

**Q.** Which “time of peak uptake/signal post injection” value ([3]; i.v. injection, whole-body NIR imaging) does the source give for `CCN1\C(=C/C=C/C=C/C2=[N+](CCCCCC(=O)O)c3ccc4c(S(=O)(=O)O)cc(S(=O)(=O)O)cc4c3C2(C)C)C(C)(C)c2c1ccc1c(S(=O)(=O)[O-])cc(S(=O)(=O)O)cc21` [free Cy5.5 dye, reference compound] here?
**A.** 0.5 h
